Assays:
hPPARδ = molecular target: T1, hPPARδ (Homo sapiens, UniProt Q03181); assay: PPAR receptor transactivation assay (UAS-bla Gal4, HEK293); assay type: cell-based
T1 construct: expressed in transfected cells; host or cells: Jump-In GripTite HEK293
T1 sequence (Q03181 1-441): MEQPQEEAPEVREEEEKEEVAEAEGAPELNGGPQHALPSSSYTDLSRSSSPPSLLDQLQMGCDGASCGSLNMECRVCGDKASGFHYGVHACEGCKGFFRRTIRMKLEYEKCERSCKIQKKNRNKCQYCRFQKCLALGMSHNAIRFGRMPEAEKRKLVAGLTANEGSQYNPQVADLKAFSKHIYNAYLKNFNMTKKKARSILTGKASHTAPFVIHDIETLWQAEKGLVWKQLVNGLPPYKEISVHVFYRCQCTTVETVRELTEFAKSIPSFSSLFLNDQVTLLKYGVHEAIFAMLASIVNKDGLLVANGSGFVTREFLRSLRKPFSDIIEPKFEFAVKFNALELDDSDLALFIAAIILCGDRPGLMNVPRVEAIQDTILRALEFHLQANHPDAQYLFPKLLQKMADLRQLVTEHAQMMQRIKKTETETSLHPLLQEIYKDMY
Method: Compound I was tested on all three human PPAR subtypes (hPPAR): hPPARα, hPPARγ, and hPPARδ in vitro assays testing for such activity.
Compound I was tested on all three human PPAR subtypes (hPPAR): hPPARα, hPPARγ, and hPPARδ. All assays were repeated at least three times for each subtype.
The genes of interest were synthesized and cloned into an appropriate Jump-In™ retargeting vector following the User Guide of the Jump-in™ T-REx™ HEK293 Retargeting Kit (ThermoFisher Catalog No A15008). For example, the vector will be used to transfect and retarget the Jump-In™ HEK293 GripTite™ parental cell line. Stable pools will be antibiotic-selected for about 21 days and tested for target gene expression by functional assay.
Jump-In™ GripTite™ HEK293 parental cells were plated at 60-80% confluency in a T-75 flask in growth medium without antibiotics and transfected with a 1:1 ratio of expression construct and R4 integrase expression construct (20 μg DNA total) using Lipofectamine® LTX (50 μL) and PLUS™ Reagent (20 μL). Following a 48 hours incubation, cells were selected with 600 μg/mL Geneticin® and 10 μg/mL Blasticidin for ˜21 days in growth medium.
Jump-In™ GripTite™ HEK293 rPPAR Alpha, Delta or Gamma UAS-bla-Gal4 cell pools were plated in a 384-well plate format (20,000 cells per well) in OptiMeM without FBS in replicates (n=4). Cells were allowed to adhere for 8 hours before addition of Compound I (1 mM top concentration, 3-fold dilutions, 10-point titration). After 16 hours, the cells were loaded with LiveBLAzer®, a fluorescent BLA substrate that gives a blue/green readout of expressing/non-expressing cells, respectively. The blue/green readout was measured on a fluorescent plate reader (Tecan Safire II).

[1] = test system: human retinoid X receptor (hRXR); assay: Nuclear receptor activity
[2] = test system: Angiopoietin-like 4 (ANGPTL4); assay: In vivo expression of PPAR regulated target gene in muscle; conditions: rat muscle
PPARα = PPARα (UniProt Q4PNY3); assay: PPAR receptor transactivation assay; assay type: cell-based; conditions: Monkey PPARα

Compound: Cc1cc(OC/C=C(/c2ccc(F)cc2)c2ccc(C#CCN3CCOCC3)cc2)ccc1OCC(=O)O [Compound I, (E)-2-(4-((3-(4-fluorophenyl)-3-(4-(3-morpholinoprop-1-yn-1-yl)phenyl)allyl)oxy)-2-methylphenoxy)acetic acid]
- agonist type (hPPARδ; PPARδ): full agonist
- selectivity for PPARδ over PPARα (hPPARδ; PPARδ over PPARα): 100 fold
- selectivity for PPARδ over PPARγ (hPPARδ; PPARδ over PPARγ): 400 fold
- hRXR activity [1]: did not show any
- expression of ANGPTL4 [2]: increased the expression
- EC50 (PPARα): > 1000 nM

— patent US11931365B2, “Use of PPAR-delta agonists in the treatment of disease” (Reneo Pharmaceuticals, Inc., priority 2022, dated 2024)
